According to the Kinase Knowledgebase extract (Sharma et al. 2016):

Biological target: EGFR (human) (UniProt P00533)
Sequence (P00533 whole entry, looked up): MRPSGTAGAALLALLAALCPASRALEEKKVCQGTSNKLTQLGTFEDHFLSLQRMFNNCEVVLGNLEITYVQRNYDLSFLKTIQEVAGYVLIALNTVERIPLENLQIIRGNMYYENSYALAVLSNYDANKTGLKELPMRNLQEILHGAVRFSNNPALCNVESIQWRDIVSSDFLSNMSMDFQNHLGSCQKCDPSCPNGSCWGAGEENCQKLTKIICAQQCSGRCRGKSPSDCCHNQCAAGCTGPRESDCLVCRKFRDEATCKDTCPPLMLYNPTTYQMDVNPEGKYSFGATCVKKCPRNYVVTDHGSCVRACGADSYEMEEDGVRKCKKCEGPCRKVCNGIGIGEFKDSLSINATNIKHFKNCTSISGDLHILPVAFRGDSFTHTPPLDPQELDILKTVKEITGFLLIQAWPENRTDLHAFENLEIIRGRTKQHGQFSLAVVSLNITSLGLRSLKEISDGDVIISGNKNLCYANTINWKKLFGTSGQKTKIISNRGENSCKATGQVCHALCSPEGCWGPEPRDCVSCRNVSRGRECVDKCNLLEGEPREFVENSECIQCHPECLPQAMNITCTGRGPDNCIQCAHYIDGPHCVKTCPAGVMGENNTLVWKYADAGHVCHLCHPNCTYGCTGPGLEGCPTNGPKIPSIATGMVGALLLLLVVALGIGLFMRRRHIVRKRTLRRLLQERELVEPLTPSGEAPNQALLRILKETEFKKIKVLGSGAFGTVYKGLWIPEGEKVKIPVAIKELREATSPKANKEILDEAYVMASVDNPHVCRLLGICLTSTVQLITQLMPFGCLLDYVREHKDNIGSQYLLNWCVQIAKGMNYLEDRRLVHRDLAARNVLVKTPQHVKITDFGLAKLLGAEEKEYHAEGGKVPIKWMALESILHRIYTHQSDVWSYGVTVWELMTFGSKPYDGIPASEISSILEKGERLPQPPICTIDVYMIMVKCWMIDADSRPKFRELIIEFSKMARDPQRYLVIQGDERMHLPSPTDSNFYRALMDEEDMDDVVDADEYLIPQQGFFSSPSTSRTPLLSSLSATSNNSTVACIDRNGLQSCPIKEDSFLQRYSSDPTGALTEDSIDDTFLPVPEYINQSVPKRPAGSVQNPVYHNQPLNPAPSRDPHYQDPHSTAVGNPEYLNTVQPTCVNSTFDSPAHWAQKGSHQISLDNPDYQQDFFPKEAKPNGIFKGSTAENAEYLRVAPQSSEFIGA

Row | SMILES | IC50
1 | C#Cc1cccc(Nc2ncnc3cc(O)c(OCCCCCCC(=O)NO)cc23)c1 | ≤ 100 nM
2 | COc1cc2ncnc(NCCc3ccccc3)c2cc1OCCCCCCC(=O)NO | 100 to 1000 nM
3 | COc1cc2ncnc(NCc3ccc(F)c(F)c3)c2cc1OCCCCCCC(=O)NO | 100 to 1000 nM
4 | C#Cc1cccc(Nc2ncnc3ccc(OCCCCCCC(=O)NO)cc23)c1 | 100 to 1000 nM
5 | O=C(CCCCCNCc1ccc(-c2ccc3ncnc(Nc4ccc(OCc5cccc(F)c5)c(Cl)c4)c3c2)o1)NO | ≤ 100 nM
6 | C#Cc1cccc(Nc2ncnc3cc(OCCCCCCC(=O)NO)c(OCCOC)cc23)c1 | ≤ 100 nM
7 | COc1cc2ncnc(NCc3cccc(Br)c3)c2cc1OCCCCCCC(=O)NO | 100 to 1000 nM
8 | C[C@@H](Nc1ncnc2ccc(OCCCCCC(=O)NO)cc12)c1ccccc1 | 100 to 1000 nM
9 | O=C(CCCCCCCNCc1ccc(-c2ccc3ncnc(Nc4ccc(OCc5cccc(F)c5)c(Cl)c4)c3c2)o1)NO | ≤ 100 nM
10 | COc1cc2ncnc(N[C@H](C)c3ccc(F)cc3)c2cc1OCCCCCCC(=O)NO | 100 to 1000 nM
11 | COc1cc2ncnc(N[C@H](C)c3ccc(Cl)cc3)c2cc1OCCCCCCC(=O)NO | 100 to 1000 nM
12 | C#Cc1cc(Nc2ncnc3cc(OC)c(OCCCCCCC(=O)NO)cc23)ccc1O | ≤ 100 nM
13 | C#Cc1cccc(Nc2ncnc3ccc(OCCCCC(=O)NO)cc23)c1 | ≤ 100 nM
14 | C#Cc1cccc(Nc2ncnc3ccc(OCC(=O)NO)cc23)c1 | ≤ 100 nM
15 | C#Cc1cccc(Nc2ncnc3cc(OCCCCCCC(=O)NO)c(OC)cc23)c1 | ≤ 100 nM
16 | C#Cc1cccc(Nc2ncnc3cc(OCCOC)c(OCCCCCCC(=O)NO)cc23)c1 | ≤ 100 nM
17 | COc1cc2ncnc(Nc3ccc(F)c(Cl)c3)c2cc1NC(=O)CCCCCCC(=O)NO | ≤ 100 nM
18 | COc1cc2ncnc(N[C@H](C)c3ccccc3)c2cc1OCCCCCC(=O)NO | ≤ 100 nM
19 | O=C(CCCCCCOc1ccc2ncnc(Nc3ccc(OCc4cccc(F)c4)c(Cl)c3)c2c1)NO | ≤ 100 nM
20 | C#Cc1cccc(Nc2ncnc3cc(OC)c(NC(=O)CCCCCCC(=O)NO)cc23)c1 | ≤ 100 nM
21 | C#Cc1cccc(Nc2ncnc3ccc(OCCCCCC(=O)NO)cc23)c1 | 100 to 1000 nM
22 | C#Cc1cccc(Nc2ncnc3cc(OC)c(NC(=O)CCCCC(=O)NO)cc23)c1 | ≤ 100 nM
23 | C#Cc1cccc(Nc2ncnc3cc(OC)c(NC(=O)CCCC(=O)NO)cc23)c1 | ≤ 100 nM
24 | COc1cc2ncnc(NCc3ccccc3)c2cc1OCCCCCCC(=O)NO | ≤ 100 nM
25 | C[C@@H](Nc1ncnc2ccc(OCCCCCCC(=O)NO)cc12)c1ccccc1 | 100 to 1000 nM
26 | COc1ccc([C@@H](C)Nc2ncnc3cc(OC)c(OCCCCCCC(=O)NO)cc23)cc1 | ≥ 10000 nM
27 | C#Cc1cccc(Nc2ncnc3ccc(OCCCC(=O)NO)cc23)c1 | 100 to 1000 nM

More lines, now with the values ahead:

Row | IC50 | SMILES
28 | ≤ 100 nM | O=C(CCCCCCOc1ccc2ncnc(Nc3ccc(F)c(Cl)c3)c2c1)NO
29 | ≤ 100 nM | COc1cc2ncnc(Nc3ccc(F)c(Cl)c3)c2cc1OCCCCCC(=O)NO
30 | ≤ 100 nM | COc1cc2ncnc(Nc3ccc(F)c(Cl)c3)c2cc1OCC(=O)NO
31 | ≤ 100 nM | COCCOc1cc2ncnc(Nc3ccc(F)c(Cl)c3)c2cc1OCCCCCCC(=O)NO
32 | ≤ 100 nM | O=C(COc1ccc2ncnc(Nc3ccc(F)c(Cl)c3)c2c1)NO
33 | ≤ 100 nM | COCCOc1cc2c(Nc3ccc(F)c(Cl)c3)ncnc2cc1OCCCCCCC(=O)NO
34 | ≤ 100 nM | C#Cc1cccc(Nc2ncnc3cc(OC)c(OCC(=O)NO)cc23)c1
35 | ≤ 100 nM | COc1cc2ncnc(NCc3ccc(F)c(Cl)c3)c2cc1OCCCCCCC(=O)NO
36 | ≤ 100 nM | COc1cc2ncnc(Nc3ccc(F)c(Cl)c3)c2cc1NC(=O)Nc1ccc(C(=O)NO)cc1
37 | ≤ 100 nM | COCCOc1cc2ncnc(Nc3ccc(OCc4cccc(F)c4)c(Cl)c3)c2cc1OCCCCCCC(=O)NO
38 | ≤ 100 nM | C#Cc1cc(Nc2ncnc3cc(OCCOC)c(OCCCCCCC(=O)NO)cc23)ccc1F
39 | ≤ 100 nM | COc1cc2ncnc(Nc3ccc(F)c(Cl)c3)c2cc1OCCC(=O)NO
40 | ≤ 100 nM | COc1cc2ncnc(Nc3ccc(F)c(Cl)c3)c2cc1OCCCC(=O)NO
41 | ≤ 100 nM | O=C(CCCCCOc1ccc2ncnc(Nc3ccc(F)c(Cl)c3)c2c1)NO
42 | ≤ 100 nM | COc1cc2ncnc(Nc3ccc(F)c(Cl)c3)c2cc1OCCOc1ccc(CC(=O)NO)cc1
43 | ≤ 100 nM | COc1cc2ncnc(Nc3ccc(F)c(Cl)c3)c2cc1NC(=O)CCCC(=O)NO
44 | ≤ 100 nM | COCCOc1cc2ncnc(Nc3ccc(F)c(Cl)c3)c2cc1NC(=O)CCCCC(=O)NO
45 | ≤ 100 nM | COc1cc2ncnc(Nc3ccc(F)c(Cl)c3)c2cc1OCCOc1ccc(C(=O)NO)cc1

Row | IC50 | SMILES
46 | ≤ 100 nM | COc1cc2ncnc(Nc3ccc(F)c(Cl)c3)c2cc1OCCCCCCC(=O)NO
47 | ≤ 100 nM | COc1cc2ncnc(Nc3ccc(OCc4cccc(F)c4)c(Cl)c3)c2cc1OCCCCCCC(=O)NO
48 | ≤ 100 nM | C#Cc1cccc(Nc2ncnc3cc(OC)c(OCCC(=O)NO)cc23)c1
49 | ≤ 100 nM | COc1cc2ncnc(Nc3ccc(F)c(Cl)c3)c2cc1OCCOc1ccc(C=CC(=O)NO)cc1
50 | ≤ 100 nM | COCCOc1cc2ncnc(Nc3ccc(F)c(Cl)c3)c2cc1NC(=O)CCCC(=O)NO
51 | ≤ 100 nM | O=C(CCOc1ccc2ncnc(Nc3ccc(F)c(Cl)c3)c2c1)NO
52 | ≤ 100 nM | COc1cc2ncnc(Nc3ccc(F)c(Cl)c3)c2cc1OCCCCCCC(=O)N(C)O
53 | ≤ 100 nM | COCCOc1cc2ncnc(Nc3ccc(F)c(Cl)c3)c2cc1NC(=O)CCCCCCC(=O)NO
54 | ≤ 100 nM | COc1cc2ncnc(Nc3ccc(F)c(Cl)c3)c2cc1SCCCCC(=O)NO
55 | ≤ 100 nM | O=C(CCCCOc1ccc2ncnc(Nc3ccc(F)c(Cl)c3)c2c1)NO
56 | ≤ 100 nM | COc1cc2ncnc(Nc3ccc(F)c(Cl)c3)c2cc1OCCCCCCN(O)C(N)=O
57 | ≤ 100 nM | C#Cc1cccc(Nc2ncnc3cc(OC)c(OCCCCCC(=O)NO)cc23)c1
58 | ≤ 100 nM | COc1cc2ncnc(Nc3ccc(F)c(Cl)c3)c2cc1OCCCCC(=O)NO
59 | ≤ 100 nM | COc1cc2ncnc(Nc3ccc(F)c(Cl)c3)c2cc1CCCCCC(=O)NO
60 | ≤ 100 nM | C#Cc1cccc(Nc2ncnc3cc(OC)c(OCCCC(=O)NO)cc23)c1
61 | ≤ 100 nM | COc1cc2ncnc(Nc3ccc(F)c(Cl)c3)c2cc1SCCCCCCC(=O)NO
62 | 100 to 1000 nM | Nc1cc(Br)ccc1NC(=O)COc1ccc2ncnc(Nc3ccc(F)c(Cl)c3)c2c1
63 | ≤ 100 nM | C#Cc1cc(Nc2ncnc3cc(OC)c(OCCCCCCC(=O)NO)cc23)ccc1F
